Measured values reported in patent US20100063047A1 (KALYPSYS, INC., priority 2008, published 2010).

Target: T1, human H1 (Homo sapiens, UniProt P35367)
T1 construct: host or cells: CHO-K1, also expressing mitochondrion-targeted aequorin
Assay: In vitro histamine H1 receptor cell-based aequorin bioluminescence antagonist assay
Settings: CHO-K1 cells expressing human H1 and aequorin; histamine at EC80; read-out: H1 Antagonist EC50
Procedure: In vitro Histamine Receptor Cell-Based Assays
The cell-based assays utilize an aequorin dependent bioluminescence signal. Doubly-transfected, stable CHO—K1 cell lines expressing human H1 or H4, mitochondrion-targeted aequorin, and (H4 only) human G protein Gα16 are obtained from Perkin-Elmer. Cells are maintained in F12 (Ham's) growth medium, containing 10% (vol./vol.) fetal bovine serum, penicillin (100 IU/mL), streptomycin (0.1 mg/mL), zeocin (0.25 mg/mL) and geneticin (0.40 mg/mL). Cell media components are from Invitrogen, Inc. One day prior to assay, the growth medium is replaced with the same, excluding zeocin and geneticin.
For assay preparation, growth medium is aspirated, and cells are rinsed with calcium-free, magnesium-free phosphate-buffered saline, followed by two to three minute incubation in Versene (Invitrogen, Inc.) at 37° C. Assay medium (DMEM:F12 [50:50], phenol-red free, containing 1 mg/mL protease-free bovine serum albumin) is added to collect the released cells, which are then centrifuged. The cell pellet is re-suspended in assay medium, centrifuged once more, and re-suspended in assay medium to a final density of 5×10^6 cells/mL. Coelenterazine-h dye (500 μM in ethanol) is added to a final concentration of 5 μM, and mixed immediately. The conical tube containing the cells is then wrapped with foil to protect the light-sensitive dye. The cells are incubated for four hours further at room temperature (approximately 21° C.) with end-over-end rotation to keep them in suspension.
Just before assay, the dye-loaded cells are diluted to 0.75×10^6 cells/mL (H1 receptor) or 1.5×10^6 cells/mL (H4 receptor) with additional assay medium. Cells are dispensed to 1536 well micro-titer plates at 3 μL/well. To assay receptor antagonism, 60 nl of 100× concentration test compounds in 100% dimethyl sulfoxide (DMSO) are dispensed to the wells, one compound per well, by passive pin transfer, and the plates are incubated for 15 minutes at room temperature. […] The pipette dispenses 3 μL/well of agonist (histamine, at twice the final concentration, where final concentration is a previously determined EC80) in assay medium, with concurrent bioluminescence detection. Agonist activity of test compounds is excluded by separate assays that measure response to test compounds immediately, without added histamine agonist.
CCD image capture on the Lumilux includes a 5 second baseline read prior to agonist addition, and generally a 40 second read per plate after agonist addition. A decrease in bioluminescence signal (measured either as area-under-the-curve, or maximum signal amplitude minus minimum signal amplitude) correlates with receptor antagonism in a dose dependent manner. The negative control is DMSO lacking any test compound. For antagonist assays, the positive controls are diphenhydramine (2-Diphenylmethoxy-N,N-dimethylethylamine, 10 μM final concentration, H1 receptor) or JNJ7777120 (1-[(5-Chloro-1H-indol-2-yl)carbonyl]-4-methyl-piperazine, 10 μM final concentration, H4 receptor). Efficacy is measured as a percentage of positive control activity.

T1 sequence (P35367 whole entry): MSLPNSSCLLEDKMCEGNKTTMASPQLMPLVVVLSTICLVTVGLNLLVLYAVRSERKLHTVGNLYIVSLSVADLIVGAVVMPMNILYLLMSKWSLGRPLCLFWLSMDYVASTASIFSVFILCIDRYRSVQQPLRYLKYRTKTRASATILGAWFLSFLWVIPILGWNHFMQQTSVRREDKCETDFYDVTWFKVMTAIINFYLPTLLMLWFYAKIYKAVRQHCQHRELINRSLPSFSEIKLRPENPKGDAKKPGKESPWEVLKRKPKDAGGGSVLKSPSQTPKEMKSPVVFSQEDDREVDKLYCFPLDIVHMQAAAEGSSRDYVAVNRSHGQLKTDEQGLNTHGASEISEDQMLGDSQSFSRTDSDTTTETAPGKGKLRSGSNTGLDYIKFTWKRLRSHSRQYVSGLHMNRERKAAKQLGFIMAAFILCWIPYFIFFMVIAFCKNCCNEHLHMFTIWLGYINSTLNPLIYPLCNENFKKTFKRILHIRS

EC50, > 10 µM:
Cc1csc2ncnc(N3CCN(c4ccc(Cl)cc4)CC3)c12 [Example 6, 4-(4-(4-chlorophenyl)piperazin-1-yl)-5-methylthieno[2,3-d]pyrimidine]
CCc1cc2c(N3CCN(Cc4ccccc4)CC3)ncnc2s1 [Example 14, 4-(4-benzylpiperazin-1-yl)-6-ethylthieno[2,3-d]pyrimidine]
COc1cccc(CCNc2ncnc3scc(C)c23)c1 [Example 16, [2-(3-Methoxyphenyl)ethyl](5-methylthiopheno[3,2-e]pyrimidin-4-yl)amine]
Cc1csc2ncnc(NCCc3ccc(F)cc3)c12 [Example 17]
Cc1csc2ncnc(NCCc3cccc(F)c3)c12 [Example 18]
Cc1ccc(CCNc2ncnc3scc(C)c23)cc1 [Example 19]
Cc1cccc(CCNc2ncnc3scc(C)c23)c1 [Example 20]
Cc1csc2ncnc(NC3CCC(C)CC3)c12 (centres unmarked) [Example 21, (4-Methylcyclohexyl)(5-methylthiopheno[3,2-e]pyrimidin-4-yl)amine]
CCC1CCC(Nc2ncnc3scc(C)c23)CC1 (centres unmarked) [Example 22, (4-Ethylcyclohexyl)(5-methylthiopheno[3,2-e]pyrimidin-4-yl)amine]
Cc1csc2ncnc(CCCc3ccc(Cl)cc3)c12 [Example 23, 4-(3-(4-chlorophenyl)propyl)-5-methylthieno[2,3-d]pyrimidine]
Cc1csc2ncnc(C(=O)CCc3ccc(Cl)cc3)c12 [Example 25, 3-(4-chlorophenyl)-1-(5-methylthieno[2,3-d]pyrimidin-4-yl)propan-1-one]
Cc1csc2ncnc(OCCc3ccc(Cl)cc3)c12 [Example 26, 4-(4-chlorophenethoxy)-5-methylthieno[2,3-d]pyrimidine]
Cc1csc2ncnc(NCC3CCc4cc(Cl)ccc43)c12 (centres unmarked) [Example 30, N-((5-chloro-2,3-dihydro-1H-inden-1-yl)methyl)-5-methylthieno[2,3-d]pyrimidin-4-amine]
Cc1csc2ncnc(NC(=O)Cc3ccc(Cl)cc3)c12 [Example 31, 2-(4-chlorophenyl)-N-(5-methylthieno[2,3-d]pyrimidin-4-yl)acetamide]
Cc1csc2nccc(NCCc3ccc(Cl)cc3)c12 [Example 36, N-(4-chlorophenethyl)-3-methylthieno[2,3-b]pyridin-4-amine]
COc1ccc(CCNc2ccnc3scc(C)c23)cc1 [Example 37, N-(4-methoxyphenethyl)-3-methylthieno[2,3-b]pyridin-4-amine]
Clc1ccc(CCNc2ccnc3sccc23)cc1 [Example 38, N-(4-chlorophenethyl)thieno[2,3-b]pyridin-4-amine]
Cc1csc2ncnc(NC3CCCC(C)C3)c12 (centres unmarked) [Example 41, 5-methyl-N-(3-methylcyclohexyl)thieno[2,3-d]pyrimidin-4-amine]
Fc1ccccc1CCNc1ncnc2sc3c(c12)CCCC3 [Example 42, N-[2-(2-fluorophenyl)ethyl]-8-thia-4,6-diazatricyclo[7.4.0.0^{2,7}]trideca-1(9),2(7),3,5-tetraen-3-amine]
CCOC(=O)C1CCN(c2ncnc3scc(C)c23)CC1 [Example 44, ethyl 1-{5-methylthieno[2,3-d]pyrimidin-4-yl}piperidine-4-carboxylate]
Cc1csc2ncnc(NCCc3ccc(Cl)cc3)c12 [Example 46, N-[2-(4-chlorophenyl)ethyl]-5-methylthieno[2,3-d]pyrimidin-4-amine]
CCCCNc1ncnc2scc(-c3ccccc3)c12 [Example 47, N-butyl-5-phenylthieno[2,3-d]pyrimidin-4-amine]
COc1ccc(CCNc2ncnc3sccc23)cc1 [Example 48, N-[2-(4-methoxyphenyl)ethyl]thieno[2,3-d]pyrimidin-4-amine]
Cc1csc2ncnc(NC3CCC3)c12 [Example 58, N-cyclobutyl-5-methylthieno[2,3-d]pyrimidin-4-amine]
Cc1csc2ncnc(NCC3CC3)c12 [Example 59, N-(cyclopropylmethyl)-5-methylthieno[2,3-d]pyrimidin-4-amine]
Cc1csc2ncnc(NC3CCCC3)c12 [Example 65, N-cyclopentyl-5-methylthieno[2,3-d]pyrimidin-4-amine]
CCCC(C)Nc1ncnc2scc(C)c12 (centres unmarked) [Example 66, 5-methyl-N-(pentan-2-yl)thieno[2,3-d]pyrimidin-4-amine]
CCC(C)CNc1ncnc2scc(C)c12 (centres unmarked) [Example 67, 5-methyl-N-(2-methylbutyl)thieno[2,3-d]pyrimidin-4-amine]
Cc1csc2ncnc(NC(C)C(C)C)c12 (centres unmarked) [Example 68, 5-methyl-N-(3-methylbutan-2-yl)thieno[2,3-d]pyrimidin-4-amine]
Cc1csc2ncnc(NCCC(C)C)c12 [Example 69, 5-methyl-N-(3-methylbutyl)thieno[2,3-d]pyrimidin-4-amine]
COCC(C)Nc1ncnc2scc(C)c12 (centres unmarked) [Example 71, N-(1-methoxypropan-2-yl)-5-methylthieno[2,3-d]pyrimidin-4-amine]
CCC(CO)Nc1ncnc2scc(C)c12 (centres unmarked) [Example 72, 2-({5-methylthieno[2,3-d]pyrimidin-4-yl}amino)butan-1-ol]
CCC(CO)Nc1ncnc2scc(C)c12 (centres unmarked) [Example 73, 2-({5-methylthieno[2,3-d]pyrimidin-4-yl}amino)butan-1-ol]
Cc1csc2ncnc(NCc3ccco3)c12 [Example 75, N-(furan-2-ylmethyl)-5-methylthieno[2,3-d]pyrimidin-4-amine]
Cc1csc2ncnc(NC3CCCCC3)c12 [Example 76, N-cyclohexyl-5-methylthieno[2,3-d]pyrimidin-4-amine]
Cc1csc2ncnc(NCC3CCCO3)c12 (centres unmarked) [Example 77, 5-methyl-N-(oxolan-2-ylmethyl)thieno[2,3-d]pyrimidin-4-amine]
Cc1csc2ncnc(NCCC(C)(C)C)c12 [Example 78, N-(3,3-dimethylbutyl)-5-methylthieno[2,3-d]pyrimidin-4-amine]
Cc1csc2ncnc(NC(C)CC(C)C)c12 (centres unmarked) [Example 79, 5-methyl-N-(4-methylpentan-2-yl)thieno[2,3-d]pyrimidin-4-amine]
Cc1csc2ncnc(NC(CO)C(C)C)c12 (centres unmarked) [Example 82, 3-methyl-2-({5-methylthieno[2,3-d]pyrimidin-4-yl}amino)butan-1-ol]
Cc1csc2ncnc(NCc3ccccc3)c12 [Example 83, N-benzyl-5-methylthieno[2,3-d]pyrimidin-4-amine]
Cc1csc2ncnc(NCc3cccs3)c12 [Example 87, 5-methyl-N-(thiophen-2-ylmethyl)thieno[2,3-d]pyrimidin-4-amine]
Cc1csc2ncnc(NCC3CCCCC3)c12 [Example 89, N-(cyclohexylmethyl)-5-methylthieno[2,3-d]pyrimidin-4-amine]
Cc1csc2ncnc(NC3CCCCCC3)c12 [Example 90, N-cycloheptyl-5-methylthieno[2,3-d]pyrimidin-4-amine]
Cc1csc2ncnc(NC3CCCCC3C)c12 (centres unmarked) [Example 91, 5-methyl-N-(2-methylcyclohexyl)thieno[2,3-d]pyrimidin-4-amine]
